Series [1] concerns the target T1, β2-receptors (Cavia porcellus, UniProt Q8K4Z4).
T1 construct: was also tested in isolated tissue preparations; from tissue; host or cells: guinea-pig tracheal strips
The series is described as follows: Guinea-pig tracheal strips contracted with carbachol, relaxing effect.

Series [2] deals with Central α2-receptor. The series is described as follows: Binding study, rat cerebral cortex, [3H]-rauwolscine. As to conditions: for Ki: rat cerebral cortex, [3H]-rauwolscine. How it is done: (§1) The affinity of the enantiomers for adrenergic and dopaminergic receptors was tested by binding studies in cerebral and peripheral tissues. The results are reported in Table 1 compared with CHF 1024 racemate in terms of inhibition constant (Ki) expressed as nanomolar concentration (nM).

Series [3] concerns the target Central DA2-receptor (Rattus norvegicus, UniProt P61169). Nature of the series: Binding study, rat striatum, [3H]-spiperone. As to conditions: for Ki: rat striatum, [3H]-spiperone. How it is done: as §1
The target of series [4] is T2, β1-receptor (Rattus norvegicus, UniProt P18090).
T2 construct: from tissue; host or cells: rat lung
T2 sequence (P18090 whole entry): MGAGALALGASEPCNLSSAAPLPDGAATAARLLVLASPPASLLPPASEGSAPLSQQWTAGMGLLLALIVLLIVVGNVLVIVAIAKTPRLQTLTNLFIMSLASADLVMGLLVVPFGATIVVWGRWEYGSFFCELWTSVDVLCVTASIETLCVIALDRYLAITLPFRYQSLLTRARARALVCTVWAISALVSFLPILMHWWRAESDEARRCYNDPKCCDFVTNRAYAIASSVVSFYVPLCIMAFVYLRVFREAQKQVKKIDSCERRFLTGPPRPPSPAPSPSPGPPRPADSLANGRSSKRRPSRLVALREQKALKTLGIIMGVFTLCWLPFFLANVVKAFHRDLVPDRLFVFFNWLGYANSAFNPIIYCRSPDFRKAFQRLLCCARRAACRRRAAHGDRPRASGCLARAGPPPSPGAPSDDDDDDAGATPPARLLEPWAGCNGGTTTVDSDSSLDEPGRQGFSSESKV
Nature of the series: Binding study, rat lung, [3H]-(−)dihydroalprenolol. The method, then:
as §1

Series [5] deals with T3, β2-receptor (Rattus norvegicus, UniProt P10608).
T3 construct: from tissue; host or cells: rat lung
T3 sequence (P10608 whole entry): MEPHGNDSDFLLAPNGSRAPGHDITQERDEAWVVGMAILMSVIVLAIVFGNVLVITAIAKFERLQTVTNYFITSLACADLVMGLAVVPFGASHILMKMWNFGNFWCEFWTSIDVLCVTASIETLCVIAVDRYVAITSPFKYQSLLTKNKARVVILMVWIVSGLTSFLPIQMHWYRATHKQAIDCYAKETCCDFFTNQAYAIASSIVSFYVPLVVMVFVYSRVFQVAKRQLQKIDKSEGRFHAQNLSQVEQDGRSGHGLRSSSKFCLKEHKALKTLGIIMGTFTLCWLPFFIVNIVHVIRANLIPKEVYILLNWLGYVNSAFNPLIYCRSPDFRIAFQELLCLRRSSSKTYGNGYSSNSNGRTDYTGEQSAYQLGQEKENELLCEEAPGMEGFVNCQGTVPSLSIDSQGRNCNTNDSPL
The series is described as follows: Binding study, rat lung, [3H]-(−)dihydroalprenolol. The method, then: as §1

Series [6] addresses Pre-synaptic DA2 receptor (Oryctolagus cuniculus, UniProt G1T1Q0). Nature of the series: Electrically stimulated rabbit rectococcigeus muscle, inhibition of contraction. As to conditions: read-out: effectiveness (α).
Method: (§2) The pharmacological activity of the enantiomers toward the same receptors was also tested in isolated tissue preparations. […] EC50 is the concentration inducing 50% of the maximal response and is expressed in mols/liter (M).
The subject of series [7] is conscious spontaneously hypertensive rats. Nature of the series: Arterial pressure and heart rate in conscious spontaneously hypertensive rats (telemetry). It is filed as in vivo, rat. The following applies: for recovery to basal values after treatment: after interruption of s.c. treatment; for effect on heart rate (words, summary): subcutaneous administration for 7 days.

Series [8] deals with T4, Central DA1 receptor (Rattus norvegicus, UniProt P18901).
T4 construct: from tissue; host or cells: rat striatum
T4 sequence (P18901 whole entry): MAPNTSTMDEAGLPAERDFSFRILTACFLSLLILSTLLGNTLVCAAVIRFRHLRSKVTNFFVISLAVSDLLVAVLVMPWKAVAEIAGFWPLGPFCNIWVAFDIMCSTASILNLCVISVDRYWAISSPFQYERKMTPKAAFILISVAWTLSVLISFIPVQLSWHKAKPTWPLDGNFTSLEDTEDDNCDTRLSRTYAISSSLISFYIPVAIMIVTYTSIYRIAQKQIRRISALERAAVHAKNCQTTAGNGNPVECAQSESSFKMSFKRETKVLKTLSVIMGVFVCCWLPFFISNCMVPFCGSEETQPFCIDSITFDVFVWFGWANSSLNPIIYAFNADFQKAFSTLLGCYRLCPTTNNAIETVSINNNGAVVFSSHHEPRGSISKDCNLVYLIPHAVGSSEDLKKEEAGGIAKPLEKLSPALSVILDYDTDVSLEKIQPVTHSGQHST
The series is described as follows: Binding study, rat striatum, [3H]-SCH23390. The method, then:
as §1

Series [9] deals with Central α1-receptor. Nature of the series: Binding study, rat cerebral cortex, [3H]-prazosin. The method, then: as §1
The target of series [10] is β1-receptor (Cavia porcellus, UniProt H0W3H1). As to conditions: guinea pig, read-out: effectiveness (α).
β1-receptor (Cavia porcellus, UniProt H0W3H1), sequence (H0W3H1 1-470): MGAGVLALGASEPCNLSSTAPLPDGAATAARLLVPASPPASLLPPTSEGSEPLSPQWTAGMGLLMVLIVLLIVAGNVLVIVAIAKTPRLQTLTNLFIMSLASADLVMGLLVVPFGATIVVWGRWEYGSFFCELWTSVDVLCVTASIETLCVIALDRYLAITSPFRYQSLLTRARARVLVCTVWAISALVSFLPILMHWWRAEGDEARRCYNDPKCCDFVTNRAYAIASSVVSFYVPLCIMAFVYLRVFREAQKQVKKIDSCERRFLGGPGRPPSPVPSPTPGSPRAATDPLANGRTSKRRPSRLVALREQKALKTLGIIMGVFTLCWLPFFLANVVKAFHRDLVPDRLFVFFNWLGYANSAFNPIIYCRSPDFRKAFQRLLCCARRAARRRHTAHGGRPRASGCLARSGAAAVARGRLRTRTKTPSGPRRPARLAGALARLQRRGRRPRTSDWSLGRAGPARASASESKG
Series [11] deals with Pre-synaptic DA2 and α2 receptor. The series is described as follows: Perfused rabbit ear artery, inhibition of electrically-induced contraction. As to conditions: for pD2 (−log EC50): EC50 in M.
Method: as §2
Series [12] deals with anaesthetized normotensive rats. The series is described as follows: Arterial pressure in anaesthetized normotensive rats, intravenous infusion. Type of series: in vivo, rat. The following applies: intravenous infusion for 30 min. How it is done: In anaesthetized normotensive rats with recording of the arterial pressure, the effects induced by intravenous infusion for 30 min of CHF 1024 enantiomers compared with the racemate were evaluated. Control animals only received the vehicle. The results are reported in FIG. 1 as mean values and standard error.

For series [13], the system named is α1 receptor. As to conditions: background statement; cited from earlier work.
For series [14] the following is noted: after oral administration of the racemate.
The test system of series [15] is plasma and tissular esterases. As to conditions: after administration through different routes (oral, transdermal); cited from earlier work.
The nature of series [16]: Diffraction studies of crystal modifications. As to conditions: temperature dependent.
The mark [17] stands for this setting: EC50 in M, guinea-pig tracheal strips, read-out: pD2 (−log EC50) (converted).
[18] abbreviates: rat lung, [3H]-(−)dihydroalprenolol, read-out: Ki.
Where [19] appears, read: higher dose (6 nmol/kg/min) s.c., 7 days.
The mark [20] stands for this setting: rat striatum, [3H]-SCH23390, read-out: Ki.

Each structure is given as a SMILES string. “Also recorded” adds a separate entry of the source. Like-named read-outs stand apart in the source and are kept apart here. Where only a bound is given, the exact number is not on record here.

Pre-synaptic DA2 receptor, sequence (G1T1Q0 1-443): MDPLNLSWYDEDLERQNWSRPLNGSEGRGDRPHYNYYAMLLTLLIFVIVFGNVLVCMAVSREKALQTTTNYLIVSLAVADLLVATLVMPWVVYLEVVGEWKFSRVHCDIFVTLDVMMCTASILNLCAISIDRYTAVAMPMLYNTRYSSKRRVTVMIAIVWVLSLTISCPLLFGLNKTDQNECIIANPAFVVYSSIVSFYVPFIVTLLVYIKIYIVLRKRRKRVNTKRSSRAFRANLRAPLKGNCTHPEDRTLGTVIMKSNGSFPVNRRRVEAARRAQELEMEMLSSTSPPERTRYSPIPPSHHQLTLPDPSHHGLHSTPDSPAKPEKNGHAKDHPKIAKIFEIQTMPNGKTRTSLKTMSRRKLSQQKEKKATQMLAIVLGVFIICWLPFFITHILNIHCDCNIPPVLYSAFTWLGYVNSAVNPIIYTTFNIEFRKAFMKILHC
Central DA2-receptor, sequence (P61169 whole entry): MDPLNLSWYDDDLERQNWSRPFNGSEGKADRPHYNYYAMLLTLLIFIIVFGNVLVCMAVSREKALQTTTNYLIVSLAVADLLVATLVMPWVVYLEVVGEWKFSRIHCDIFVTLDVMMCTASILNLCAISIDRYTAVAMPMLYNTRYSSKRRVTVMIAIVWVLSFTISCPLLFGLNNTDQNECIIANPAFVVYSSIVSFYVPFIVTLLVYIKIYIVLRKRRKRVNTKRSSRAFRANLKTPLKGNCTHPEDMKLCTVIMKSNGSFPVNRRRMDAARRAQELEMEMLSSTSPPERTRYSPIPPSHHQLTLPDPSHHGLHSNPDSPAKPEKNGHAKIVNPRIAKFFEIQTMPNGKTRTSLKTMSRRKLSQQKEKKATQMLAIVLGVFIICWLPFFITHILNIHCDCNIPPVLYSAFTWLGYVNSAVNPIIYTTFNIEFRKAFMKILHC
T1 sequence (Q8K4Z4 whole entry): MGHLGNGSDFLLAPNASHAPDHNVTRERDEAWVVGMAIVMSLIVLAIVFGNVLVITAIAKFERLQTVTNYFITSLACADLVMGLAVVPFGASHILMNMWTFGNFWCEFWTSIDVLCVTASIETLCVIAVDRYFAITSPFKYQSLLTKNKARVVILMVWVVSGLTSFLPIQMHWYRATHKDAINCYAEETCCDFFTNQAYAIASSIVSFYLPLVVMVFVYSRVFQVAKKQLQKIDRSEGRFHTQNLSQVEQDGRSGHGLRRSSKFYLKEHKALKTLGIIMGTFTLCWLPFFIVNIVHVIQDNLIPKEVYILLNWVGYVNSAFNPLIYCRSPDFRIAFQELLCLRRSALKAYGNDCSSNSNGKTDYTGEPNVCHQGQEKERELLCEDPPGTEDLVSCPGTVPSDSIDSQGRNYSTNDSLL

Regarding `CN[C@H]1CCc2c(ccc(O)c2O)C1` [CHF 1870, (−)-(S)-5,6-dihydroxy-2-methylaminotetralin], the EC50 in series [1] (setting [17]) was 0.398 µM. For the same molecule, the entries for the “effectiveness (α)” value in [1] (guinea-pig tracheal strips) and in [11] (rabbit ear artery) were 0.97 and 0.92, respectively. The “affinity for α2-adrenergic receptors relative to the dextro enantiomer (CHF 1869)” value in series [2] (from Table 1) was about 10 times. For the same molecule, the Ki in series [2] amounted to 0.13 µM; in series [3], 0.12 µM; in [4] (setting [18]), 40 µM; in series [5] (setting [18]), 1 µM; in series [8] (setting [20]), 6.8 µM; in [9], 15 µM. Moreover, the “affinity for DA2-dopaminergic receptors relative to the dextro enantiomer (CHF 1869)” value in series [3] (from Table 1) is listed as “about 20 times”. For the same molecule, the Emax in series [6] and in series [10] was 91% in each case. Moreover, in [7] (3 nmol/kg/min s.c. osmotic minipump, 7 days), the “reduction of arterial pressure” value is 20-30 mmHg. Moreover, in series [7] (3 nmol/kg/min s.c., 7 days), the “effect on heart rate” value is given as “greater reduction of heart rate compared with the racemate”. In series [7], the “recovery to basal values after treatment” value is recorded as “took place more slowly”. In addition, the “reduction of heart rate” value in series [7] (setting [19]) is “about 70 beats/minute”. For the same molecule, the “effect on heart rate (words, summary)” value in series [7] is “more marked reduction of heart rate than an equivalent dose of the racemate”. For the same molecule, the “pD2 (−log EC50)” value in series [11] (rabbit ear artery) was 9.6. Besides, the “potency relative to its optical antipode” value in [11] (rabbit ear artery) is recorded as “at least 10000 times”. In addition, in series [12], the “effect on arterial pressure (hypotensive response)” value is reported as “dose-dependent reduction of the arterial pressure which was maintained even after infusion was discontinued; also recorded: hypotensive response slightly lower but remarkably longer-lasting than that of the racemate”.

Consider `CNC1CCc2c(ccc(O)c2O)C1` (racemic) [CHF 1024, (±)-5,6-dihydroxy-2-methylaminotetralin, reference compound], for which the response in series [1] was half-maximal at 0.251 µM (EC50). Moreover, the “effectiveness (α)” value in series [1] (guinea-pig tracheal strips) was found to be 0.96; in series [11] (rabbit ear artery), 0.94. For the same molecule, in series [13], the “agonist activity on α1 receptor” value is given as “negligible”. The Ki in series [2] came out at 0.26 µM; in series [3] (read-out: Ki), 0.29 µM; in series [4], 45 µM; in [5] it was 1.5 µM; in series [8] it was 13 µM; in [9], 16 µM. Further, the Emax is 96% in series [6] and 81% in series [10]. In series [11] (rabbit ear artery), the “pD2 (−log EC50)” value is given as 9.0.

Consider `CNC1CCc2c(ccc(OC(=O)C(C)C)c2OC(=O)C(C)C)C1` (racemic) [CHF 1035, (±)-(R,S)-5,6-Diisobutyroyloxy-2-methylaminotetralin], for which the “AUC of the dextro form relative to that of the laevo form” value in series [14] is given as “about one half”. The “conversion into the desesterified form CHF 1024” value in series [15] is “quickly and completely converted”. Further, the “structural rearrangement of the crystal form (polymorphic stability)” value in series [16] is reported as “form I shows two remarkable structural rearrangements”.

For `CN[C@H]1CCc2c(ccc(OC(=O)C(C)C)c2OC(=O)C(C)C)C1.Cl` [CHF 1810, (−)-(S)-5,6-diisobutyroyloxy-2-methylaminotetralin hydrochloride], the “structural rearrangement of the crystal form (polymorphic stability)” value in series [16] is “does not show any structural rearrangement below 100 °C”.

On to `CN[C@@H]1CCc2c(ccc(O)c2O)C1` [CHF 1869], for which, in series [1] (setting [17]), the EC50 is 0.251 µM. Also, the “effectiveness (α)” value came to 0.97 in series [1] (guinea-pig tracheal strips) and 0.92 in series [11] (rabbit ear artery). For the same molecule, the Ki in [2] turned out to be 1.6 µM; in series [3], 2.4 µM; in [4] (setting [18]), 90 µM; in [5] (setting [18]), 1.4 µM; in series [8] (setting [20]), 7.4 µM; in [9] it was 21 µM. The Emax in series [6] was 87%; in series [10], 83%. Further, the “effect on heart rate” value is “no reduction of heart rate” in series [7] (3 nmol/kg/min s.c., 7 days) and “no reduction of heart rate is observed, which even increases during the first 2-3 days of treatment” in [7] (setting [19]). In series [7] (3 nmol/kg/min s.c., 7 days), the “hypotensive effect” value is reported as “slight, although noticeable, hypotensive effect”. For the same molecule, the “recovery to basal values after treatment” value in series [7] is on record as “faster than with CHF 1870”. The “hypotensive response” value in series [7] (setting [19]) is on record as “comparable to that caused by its optical antipode”. Moreover, the “effect on heart rate (words, summary)” value in series [7] is reported as “no reduction of heart rate”. The “pD2 (−log EC50)” value in series [11] (rabbit ear artery) was under 5.0. In [11] (isolated tissue preparations), the “activity on α2 and DA2 receptors” value is “poor activity on α2 and DA2 receptors”. The “effect on arterial pressure (hypotensive response)” value in [12] is “rapid onset and disappearance of the hypotensive effects; also recorded: more rapid but less lasting response”.

As usually defined, the EC50 is the concentration that produces a half-maximal response. A word on the Ki: it is a measure of affinity in units of concentration, obtained from inhibition or displacement.

The values above are taken from US20040102652A1, “Optically active2-aminotetralin derivatives, the processes for the preparation thereof and the therapeutical use of pharmaceutical compositions containing them” (priority 2000, published 2004).
